{"source": "patent US11655217B2", "about": "“Pyrazole MAGL inhibitors” (H. Lundbeck A/S, priority 2017, dated 2023)", "key": {"MAGL": {"biological_target": "MAGL (Mus musculus (Mouse), UniProt O35678)", "sequence (O35678 whole entry)": "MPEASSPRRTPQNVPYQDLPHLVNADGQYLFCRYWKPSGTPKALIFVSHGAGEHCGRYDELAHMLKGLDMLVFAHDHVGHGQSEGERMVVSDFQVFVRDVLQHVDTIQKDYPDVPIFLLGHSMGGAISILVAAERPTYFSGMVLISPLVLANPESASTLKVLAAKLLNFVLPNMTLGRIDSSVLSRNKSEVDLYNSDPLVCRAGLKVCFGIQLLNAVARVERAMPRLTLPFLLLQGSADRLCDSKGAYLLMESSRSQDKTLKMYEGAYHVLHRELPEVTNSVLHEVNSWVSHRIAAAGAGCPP", "assay": "Mouse brain proteomes from inhibitor treated mice (oral gavage, sacrificed 4 h after administration, ABPP analysis)", "conditions": "5 mg/kg oral gavage", "method": "(§1) Preparation of Mouse Brain Proteomes from Inhibitor Treated Mice.\n(§2) Inhibitors were administered to wild-type C57Bl/6J by oral gavage in a vehicle of polyethylene glycol."}, "FAAH": {"biological_target": "FAAH (Mus musculus (Mouse), UniProt O08914)", "sequence (O08914 whole entry)": "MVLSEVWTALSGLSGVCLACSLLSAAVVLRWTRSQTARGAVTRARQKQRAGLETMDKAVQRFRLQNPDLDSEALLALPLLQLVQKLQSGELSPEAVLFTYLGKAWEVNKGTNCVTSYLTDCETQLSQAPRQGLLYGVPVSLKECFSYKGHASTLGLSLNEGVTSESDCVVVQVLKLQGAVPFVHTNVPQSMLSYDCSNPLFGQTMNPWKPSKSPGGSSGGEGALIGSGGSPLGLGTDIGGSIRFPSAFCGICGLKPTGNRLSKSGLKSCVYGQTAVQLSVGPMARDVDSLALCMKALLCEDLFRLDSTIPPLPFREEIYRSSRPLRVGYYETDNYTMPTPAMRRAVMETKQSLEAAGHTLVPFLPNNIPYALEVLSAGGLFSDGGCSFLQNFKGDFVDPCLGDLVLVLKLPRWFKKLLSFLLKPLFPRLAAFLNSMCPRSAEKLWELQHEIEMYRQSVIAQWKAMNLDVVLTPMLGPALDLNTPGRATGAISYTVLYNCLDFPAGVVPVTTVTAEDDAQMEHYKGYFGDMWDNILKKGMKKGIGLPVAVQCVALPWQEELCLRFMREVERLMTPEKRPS", "assay": "Mouse brain proteomes from inhibitor treated mice (oral gavage, sacrificed 4 h after administration, ABPP analysis), FAAH", "conditions": "5 mg/kg oral gavage", "method": "as §1, §2"}}, "data": [{"smiles": "CC1CCC(C)N1c1cc(C(F)(F)F)ccc1CN1CCN(C(=O)n2ccc(C(=O)O)n2)CC1", "note": "(stereo not drawn) [Example 114, 1-(4-(2-(2,5-dimethylpyrrolidin-1-yl)-4-(trifluoromethyl)benzyl)piperazine-1-carbonyl)-1H-pyrazole-3-carboxylic acid]", "values": [{"measurement": "MAGL % inh. 5 mg/kg (mouse)", "setting": "MAGL", "value": "D (% inhibition is greater than or equal to 0% and less than 25%)"}, {"measurement": "FAAH % inh. 5 mg/kg (mouse)", "setting": "FAAH", "value": "D (% inhibition is greater than or equal to 0% and less than 25%)"}]}, {"smiles": "O=C(O)c1ccn(C(=O)N2CCC3(CCCN3Cc3cc(N4CCCC4)cc(C(F)(F)F)c3)CC2)n1", "note": "[Example 88, 1-(1-(3-(pyrrolidin-1-yl)-5-(trifluoromethyl)benzyl)-1,8-diazaspiro[4.5]decane-8-carbonyl)-1-1H-pyrazole-3-carboxylic acid]", "values": [{"measurement": "MAGL % inh. 5 mg/kg (mouse)", "setting": "MAGL", "value": "D (% inhibition is greater than or equal to 0% and less than 25%)"}, {"measurement": "FAAH % inh. 5 mg/kg (mouse)", "setting": "FAAH", "value": "D (% inhibition is greater than or equal to 0% and less than 25%)"}]}, {"smiles": "O=C(O)c1ccn(C(=O)N2CCN(Cc3ccc(C(F)(F)F)cc3Cl)CC2)n1", "note": "[Example 91, 1-(4-(2-chloro-4-(trifluoromethyl)benzyl)piperazine-1-carbonyl)-1H-pyrazole-3-carboxylic acid]", "values": [{"measurement": "MAGL % inh. 5 mg/kg (mouse)", "setting": "MAGL", "value": "D (% inhibition is greater than or equal to 0% and less than 25%)"}, {"measurement": "FAAH % inh. 5 mg/kg (mouse)", "setting": "FAAH", "value": "D (% inhibition is greater than or equal to 0% and less than 25%)"}]}, {"smiles": "O=C(O)c1ccn(C(=O)N2CCN(Cc3cccc(Oc4ccc(F)cc4)c3)CC2)n1", "note": "[Example 51, 1-(4-(3-(4-fluorophenoxy)benzyl)piperazine-1-carbonyl)-1H-pyrazole-3-carboxylic acid]", "values": [{"measurement": "MAGL % inh. 5 mg/kg (mouse)", "setting": "MAGL", "value": "D (% inhibition is greater than or equal to 0% and less than 25%)"}, {"measurement": "FAAH % inh. 5 mg/kg (mouse)", "setting": "FAAH", "value": "D (% inhibition is greater than or equal to 0% and less than 25%)"}]}, {"smiles": "O=C(O)c1ccn(C(=O)N2CCN(Cc3ccc(C(F)(F)F)cc3N3CCC(O)CC3)CC2)n1", "note": "[Example 120, 1-(4-(2-(4-hydroxypiperidin-1-yl)-4-(trifluoromethyl)benzyl)piperazine-1-carbonyl)-1H-pyrazole-3-carboxylic acid]", "values": [{"measurement": "MAGL % inh. 5 mg/kg (mouse)", "setting": "MAGL", "value": "D (% inhibition is greater than or equal to 0% and less than 25%)"}, {"measurement": "FAAH % inh. 5 mg/kg (mouse)", "setting": "FAAH", "value": "D (% inhibition is greater than or equal to 0% and less than 25%)"}]}, {"smiles": "C[C@H]1CCCN1c1cc(C(F)(F)F)ccc1CN1CCN(C(=O)n2ccc(C(=O)O)n2)CC1", "note": "[Example 104, (S)-1-(4-(2-(2-methylpyrrolidin-1-yl)-4-(trifluoromethyl)benzyl)piperazine-1-carbonyl)-1H-pyrazole-3-carboxylic acid]", "values": [{"measurement": "MAGL % inh. 5 mg/kg (mouse)", "setting": "MAGL", "value": "D (% inhibition is greater than or equal to 0% and less than 25%)"}, {"measurement": "FAAH % inh. 5 mg/kg (mouse)", "setting": "FAAH", "value": "D (% inhibition is greater than or equal to 0% and less than 25%)"}]}, {"smiles": "NC(=O)c1ccn(C(=O)N2CCN(Cc3cccc(C(F)(F)F)c3N3CCOCC3)CC2)n1", "note": "[Example 199, 1-(4-(2-morpholino-3-(trifluoromethyl)benzyl)piperazine-1-carbonyl)-1H-pyrazole-3-carboxamide]", "values": [{"measurement": "MAGL % inh. 5 mg/kg (mouse)", "setting": "MAGL", "value": "A (% inhibition is greater than or equal to 75%)"}, {"measurement": "FAAH % inh. 5 mg/kg (mouse)", "setting": "FAAH", "value": "D (% inhibition is greater than or equal to 0% and less than 25%)"}]}, {"smiles": "O=C(O)c1ccn(C(=O)N2CCC(Oc3ccc(Cl)c(N4CCCC4)c3)CC2)n1", "note": "[Example 121, 1-(4-(4-chloro-3-(pyrrolidin-1-yl)phenoxy)piperidine-1-carbonyl)-1H-pyrazole-3-carboxylic acid]", "values": [{"measurement": "MAGL % inh. 5 mg/kg (mouse)", "setting": "MAGL", "value": "D (% inhibition is greater than or equal to 0% and less than 25%)"}, {"measurement": "FAAH % inh. 5 mg/kg (mouse)", "setting": "FAAH", "value": "D (% inhibition is greater than or equal to 0% and less than 25%)"}]}, {"smiles": "O=C(O)c1ccn(C(=O)N2CCN(Cc3ccc(C(F)(F)F)c(-c4nccs4)c3)CC2)n1", "note": "[Example 8, 1-(4-(3-(Thiazol-2-yl)-4-(trifluoromethyl)benzyl)piperazine-1-carbonyl)-1H-pyrazole-3-carboxylic Acid]", "values": [{"measurement": "MAGL % inh. 5 mg/kg (mouse)", "setting": "MAGL", "value": "D (% inhibition is greater than or equal to 0% and less than 25%)"}, {"measurement": "FAAH % inh. 5 mg/kg (mouse)", "setting": "FAAH", "value": "D (% inhibition is greater than or equal to 0% and less than 25%)"}]}, {"smiles": "O=C(O)c1ccn(C(=O)N2CCN(Cc3ccc(C(F)(F)F)c(N4CCCC4)c3)CC2)n1", "note": "[Example 7, 1-(4-(3-(Pyrrolidin-1-yl)-4-(trifluoromethyl)benzyl)piperazine-1-carbonyl)-1H-pyrazole-3-carboxylic Acid]", "values": [{"measurement": "MAGL % inh. 5 mg/kg (mouse)", "setting": "MAGL", "value": "D (% inhibition is greater than or equal to 0% and less than 25%)"}, {"measurement": "FAAH % inh. 5 mg/kg (mouse)", "setting": "FAAH", "value": "D (% inhibition is greater than or equal to 0% and less than 25%)"}]}, {"smiles": "CN(Cc1ccc(C(F)(F)F)cc1N1C2CCC1COC2)C1(C)CCN(C(=O)n2ccc(C(=O)O)n2)CC1", "note": "[Example 207, 1-(4-((2-(3-oxa-8-azabicyclo[3.2.1]octan-8-yl)-4-(trifluoromethyl)benzyl)(methyl)-amino)-4-methyl-piperidine-1-carbonyl)-1H-pyrazole-3-carboxylic acid]", "values": [{"measurement": "MAGL % inh. 5 mg/kg (mouse)", "setting": "MAGL", "value": "D (% inhibition is greater than or equal to 0% and less than 25%)"}, {"measurement": "FAAH % inh. 5 mg/kg (mouse)", "setting": "FAAH", "value": "D (% inhibition is greater than or equal to 0% and less than 25%)"}]}, {"smiles": "Cc1cn(C(=O)N2CCC3(CC2)CN(Cc2ccc(C(F)(F)F)cc2N2CCCC2)C3)nc1C(=O)O", "note": "[Example 135, 4-methyl-1-(2-(2-(pyrrolidin-1-yl)-4-(trifluoromethyl)benzyl)-2,7-diazaspiro[3.5]no-nane-7-carbonyl)-1H-pyrazole-3-carboxylic acid]", "values": [{"measurement": "MAGL % inh. 5 mg/kg (mouse)", "setting": "MAGL", "value": "D (% inhibition is greater than or equal to 0% and less than 25%)"}, {"measurement": "FAAH % inh. 5 mg/kg (mouse)", "setting": "FAAH", "value": "D (% inhibition is greater than or equal to 0% and less than 25%)"}]}, {"smiles": "O=C(O)c1ccn(C(=O)N2CCN(Cc3ccc(C(F)(F)F)cc3N3C4CCC3COC4)CC2)n1", "note": "[Example 118, 1-(4-(2-(3-oxa-8-azabicyclo[3.2.1]octan-8-yl)-4-(trifluoromethyl)benzyl)piperazine-1-carbonyl)-1H-pyrazole-3-carboxylic acid]", "values": [{"measurement": "MAGL % inh. 5 mg/kg (mouse)", "setting": "MAGL", "value": "D (% inhibition is greater than or equal to 0% and less than 25%)"}, {"measurement": "FAAH % inh. 5 mg/kg (mouse)", "setting": "FAAH", "value": "D (% inhibition is greater than or equal to 0% and less than 25%)"}]}, {"smiles": "O=C(O)c1ccn(C(=O)N2CCN(Cc3cccc(Oc4ccc(Cl)cc4)c3)CC2)n1", "note": "[Example 98, 1-(4-(3-(4-chlorophenoxy)benzyl)piperazine-1-carbonyl)-1H-pyrazole-3-carboxylic acid]", "values": [{"measurement": "MAGL % inh. 5 mg/kg (mouse)", "setting": "MAGL", "value": "D (% inhibition is greater than or equal to 0% and less than 25%)"}, {"measurement": "FAAH % inh. 5 mg/kg (mouse)", "setting": "FAAH", "value": "D (% inhibition is greater than or equal to 0% and less than 25%)"}]}, {"smiles": "O=C(O)c1ccn(C(=O)N2CCC3(CCN(Cc4cccc(Oc5ccc(Cl)cc5)c4)C3)CC2)n1", "note": "[Example 210, 1-(2-(3-(4-chlorophenoxy)benzyl)-2,8-diazaspiro[4.5]decane-8-carbonyl)-1H-pyrazole-3-carboxylic acid]", "values": [{"measurement": "MAGL % inh. 5 mg/kg (mouse)", "setting": "MAGL", "value": "D (% inhibition is greater than or equal to 0% and less than 25%)"}, {"measurement": "FAAH % inh. 5 mg/kg (mouse)", "setting": "FAAH", "value": "D (% inhibition is greater than or equal to 0% and less than 25%)"}]}]}
